Results taken from patent US10208056B2, “Condensed tricyclic compounds as protein kinase inhibitors” (FUNDACIÓN DEL SECTOR PÚBLICO ESTATAL CENTRO NACIONAL DE …, priority 2015, dated 2019).
Where two headings read alike, the source gives them in different places.

Key:
CDK19/Cyclin C = CDK19/Cyclin C (Homo sapiens (Human), UniProt Q9BWU1); assay: CDK19/Cyclin C binding assay (LanthaScreen Eu-Kinase Binding Assay); settings: read-out: CDK19-CYCC IC50
Protocol: The binding assay relies on the LanthaScreen™ Eu-Kinase Binding Assay (Invitrogen).
Assay conditions were as indicated by the kit manufacturers with the following adaptations: • Assay buffer: 50 mM HEPES, pH 7.5, 1 mM EGTA, 0.01% Brij-35, 10 mM MgCl2 • Assay volume: 20 μl • Incubation time and temperature: 60 min at 25° C. • Cdk19-Cyclin C concentration: 2 nM • Tracer concentration: 20 nM • (Eu)-labelled anti-GST antibody concentration: 2 nM • Tested compound: Serial 1:3 dilutions • Final DMSO concentration in the assay: 1%
(§1) Assays were performed in 384-well plates. The final read out was generated using an EnVision plate reader (Perkin-Elmer).

SW620 = assay: In vitro cell proliferation assay (CellTiter-Glo), SW620; type: cell-based, human; settings: Homo sapiens
Protocol: (§2) The in vitro potency of the compounds was measured by the cell proliferation assay CellTiter-Glo® Luminescent Cell Viability Assay, commercially available from Promega Corp., Madison, Wis. This homogeneous assay method is based on the recombinant expression of Coleoptera luciferase (U.S. Pat. No. 5,583,024; U.S. Pat. No. 5,674,713; U.S. Pat. No. 5,700,670) and determines the number of viable cells in culture based on quantitation of the ATP present, an indicator of metabolically active cells (Crouch et al (1993) J. Immunol. Meth. 160:81-88; U.S. Pat. No. 6,602,677). The CellTiterGlo® Assay was conducted […] it amenable to automated high throughput screening (HTS) (Cree et al (1995) AntiCancer Drugs 6:398-404).
(§3) The homogeneous assay procedure involves adding the single reagent (CellTiter-Glo® Reagent) directly to cells cultured in serum-supplemented medium. Cell washing, removal of medium and multiple pipetting steps are not required. The system detects as few as 15 cells/well in a 96-well format in 10 minutes after adding reagent and mixing.
(§4) The homogeneous “add-mix-measure” format results in cell lysis and generation of a luminescent signal proportional to the amount of ATP present. The amount of ATP is directly proportional to the number of cells present in culture. The CellTiter-Glo® Assay generates a “glow-type” luminescent signal, produced by the luciferase reaction, which has a half-life generally greater than five hours, depending on cell type and medium used. Viable cells are reflected in relative luminescence units (RLU). The substrate, Beetle Luciferin, is oxidatively decarboxylated by recombinant firefly luciferase with concomitant conversion of ATP to AMP and generation of photons. The extended half-life eliminates the need to use reagent injectors and provides flexibility for continuous or batch mode processing of multiple plates. This cell proliferation assay can be used with various multiwell formats, e.g. 96 or 384 well format. Data can be recorded by luminometer or CCD camera imaging device. The luminescence output is presented as relative light units (RLU), measured over time.

MV4:11 = assay: In vitro cell proliferation assay (CellTiter-Glo), MV4:11; type: cell-based; settings: Homo sapiens
Protocol: as §2, §3, §4

Molm13 = assay: In vitro cell proliferation assay (CellTiter-Glo), Molm13; type: cell-based; settings: Homo sapiens
Protocol: as §2, §3, §4

CDK8/Cyclin C = CDK8/Cyclin C (Homo sapiens (Human), UniProt P49336); assay: CDK8/Cyclin C binding assay (LanthaScreen Eu-Kinase Binding Assay); settings: binding assay
Protocol: The enzyme has been purchase from Invitrogen (PV4402) as a dimer of full-length His-tagged recombinant human proteins.
as §1

Haspin kinase = Haspin kinase (Homo sapiens (Human), UniProt Q8TF76); assay: Haspin kinase assay (ADP-Glo); type: biochemical; settings: ATP 150 μM
Source text: The kinase assay relies on ADP-Glo^KM biochemical kinase assay (Promega). This is a luminescent kinase assay that measures ADP formed from a kinase reaction. Then ADP is converted into ATP, which is transformed into a light signal by Ultra-Glo™ Luciferase. The luminescent signal positively correlates with kinase activity. The assay measures the intrinsic ATPase activity (in the absence of peptidic substrate as phosphate acceptor).
The enzyme was purchase from Invitrogen (PV5708) as the kinase domain of GST tagged recombinant human proteins.
Assay conditions were as indicated by the kit manufacturers with the following adaptations: • Assay buffer: 15 mM HEPES pH 7.4, 20 mM NaCl, 1 mM EGTA, 0.02% Tween 20, 10 mM MgCl2, 0.1 mg/ml BGG • Assay volume: 20 μl • Incubation time and temperature: 60 min at 30° C. • Haspin concentration: 20 nM • ATP concentration: 150 μM • Tested compound: Serial 1:3 dilutions • Final DMSO concentration in the assay: 1%
Assays were performed in 384-well plates. The final read out was generated using an EnVision plate reader (Perkin-Elmer). Luminescent relative units are normalized against the control activity included for each compound (i.e., 100% Haspin activity, without compound) and the percentage of inhibition is calculated.

MDA-MB-231 = assay: In vitro cell proliferation assay (CellTiter-Glo), MDA-MB-231; type: cell-based; settings: Homo sapiens
Protocol: as §2, §3, §4

intracellular CDK8 = intracellular CDK8 (Homo sapiens (Human), UniProt P49336); assay: Endogenous phosphoSTAT1 inhibition in SW620 cells growing in 10% FBS; type: cell-based; settings: semiquantitative, read-out: SW620 P-STAT1(S727)
Protocol: Endogenous phosphoSTAT1 inhibition can be screened in cells growing in 10% FBS. Cells are plated as described before and treated for 8 h with compounds as described before. Then cells are lysated and phospho STAT1 is evaluated as described before. The percentage of phosphorylated STAT1 vs total STAT1 in cells treated with DMSO is taken as hundred percent of phosphorylation. The percentage of STAT1 phosphorylation is finally plotted against concentration for each compound and EC50s for intracellular CDK8 inhibition are calculated using ActivityBase from IDBS.

[1] = SW-620, growth inhibition, semiquantitative, read-out: GI50 SW620
[2] = MV4-11, growth inhibition, semiquantitative, read-out: GI50 MV4:11
[3] = MOLM-13, growth inhibition, semiquantitative, read-out: GI50 Molm13
[4] = MDA-MB-231, growth inhibition, semiquantitative, read-out: GI50 MDA-MB-231

CDK8/Cyclin C, sequence (P49336 whole entry): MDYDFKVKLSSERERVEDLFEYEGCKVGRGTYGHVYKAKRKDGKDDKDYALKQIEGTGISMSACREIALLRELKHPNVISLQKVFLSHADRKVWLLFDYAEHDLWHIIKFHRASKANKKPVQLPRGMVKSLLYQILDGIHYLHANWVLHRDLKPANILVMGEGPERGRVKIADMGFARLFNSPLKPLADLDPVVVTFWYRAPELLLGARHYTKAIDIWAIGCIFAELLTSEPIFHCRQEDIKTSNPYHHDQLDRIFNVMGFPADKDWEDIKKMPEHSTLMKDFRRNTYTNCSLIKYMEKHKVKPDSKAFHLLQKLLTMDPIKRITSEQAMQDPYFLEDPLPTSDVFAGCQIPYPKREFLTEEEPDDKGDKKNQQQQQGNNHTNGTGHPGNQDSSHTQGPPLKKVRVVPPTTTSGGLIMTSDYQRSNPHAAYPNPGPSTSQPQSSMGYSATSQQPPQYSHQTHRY
CDK8/Cyclin C, sequence (P24863 whole entry partner): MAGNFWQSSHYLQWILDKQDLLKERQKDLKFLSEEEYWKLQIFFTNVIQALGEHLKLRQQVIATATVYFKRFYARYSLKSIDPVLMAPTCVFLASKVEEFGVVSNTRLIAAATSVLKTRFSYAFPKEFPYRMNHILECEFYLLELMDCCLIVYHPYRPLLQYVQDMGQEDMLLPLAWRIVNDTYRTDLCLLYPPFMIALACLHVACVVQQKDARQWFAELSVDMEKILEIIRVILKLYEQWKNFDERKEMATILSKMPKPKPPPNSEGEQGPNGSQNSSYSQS
CDK19/Cyclin C, sequence (Q9BWU1 whole entry): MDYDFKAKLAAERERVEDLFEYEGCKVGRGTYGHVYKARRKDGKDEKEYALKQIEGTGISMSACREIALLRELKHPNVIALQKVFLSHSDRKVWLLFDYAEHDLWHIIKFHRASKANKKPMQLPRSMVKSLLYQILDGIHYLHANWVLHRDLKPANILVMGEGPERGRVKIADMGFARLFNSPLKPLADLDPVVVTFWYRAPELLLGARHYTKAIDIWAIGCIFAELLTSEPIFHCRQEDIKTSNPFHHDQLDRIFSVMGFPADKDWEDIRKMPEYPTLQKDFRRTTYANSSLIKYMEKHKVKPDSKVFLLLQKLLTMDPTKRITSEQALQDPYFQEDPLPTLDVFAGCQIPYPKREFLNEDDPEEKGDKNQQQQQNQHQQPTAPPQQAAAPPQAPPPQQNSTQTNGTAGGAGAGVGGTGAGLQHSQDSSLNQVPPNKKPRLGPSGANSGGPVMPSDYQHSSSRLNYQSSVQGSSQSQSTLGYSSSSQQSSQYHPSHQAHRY
CDK19/Cyclin C, sequence (P24863 whole entry partner): as the sequence (P24863 whole entry partner) above
Haspin kinase, sequence (Q8TF76 484-798): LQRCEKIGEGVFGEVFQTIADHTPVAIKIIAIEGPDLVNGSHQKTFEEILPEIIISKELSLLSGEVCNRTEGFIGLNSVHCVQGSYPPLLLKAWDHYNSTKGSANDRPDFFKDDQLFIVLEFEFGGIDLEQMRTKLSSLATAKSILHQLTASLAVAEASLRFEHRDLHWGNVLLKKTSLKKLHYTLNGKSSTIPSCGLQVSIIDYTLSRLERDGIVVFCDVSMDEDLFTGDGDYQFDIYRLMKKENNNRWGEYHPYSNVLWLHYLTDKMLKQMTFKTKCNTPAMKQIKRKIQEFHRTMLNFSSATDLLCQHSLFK
intracellular CDK8, sequence (P49336 whole entry): as the sequence (P49336 whole entry) above
intracellular CDK8, sequence (P24863 whole entry partner): as the sequence (P24863 whole entry partner) above
intracellular CDK8, sequence (Q93074 whole entry partner): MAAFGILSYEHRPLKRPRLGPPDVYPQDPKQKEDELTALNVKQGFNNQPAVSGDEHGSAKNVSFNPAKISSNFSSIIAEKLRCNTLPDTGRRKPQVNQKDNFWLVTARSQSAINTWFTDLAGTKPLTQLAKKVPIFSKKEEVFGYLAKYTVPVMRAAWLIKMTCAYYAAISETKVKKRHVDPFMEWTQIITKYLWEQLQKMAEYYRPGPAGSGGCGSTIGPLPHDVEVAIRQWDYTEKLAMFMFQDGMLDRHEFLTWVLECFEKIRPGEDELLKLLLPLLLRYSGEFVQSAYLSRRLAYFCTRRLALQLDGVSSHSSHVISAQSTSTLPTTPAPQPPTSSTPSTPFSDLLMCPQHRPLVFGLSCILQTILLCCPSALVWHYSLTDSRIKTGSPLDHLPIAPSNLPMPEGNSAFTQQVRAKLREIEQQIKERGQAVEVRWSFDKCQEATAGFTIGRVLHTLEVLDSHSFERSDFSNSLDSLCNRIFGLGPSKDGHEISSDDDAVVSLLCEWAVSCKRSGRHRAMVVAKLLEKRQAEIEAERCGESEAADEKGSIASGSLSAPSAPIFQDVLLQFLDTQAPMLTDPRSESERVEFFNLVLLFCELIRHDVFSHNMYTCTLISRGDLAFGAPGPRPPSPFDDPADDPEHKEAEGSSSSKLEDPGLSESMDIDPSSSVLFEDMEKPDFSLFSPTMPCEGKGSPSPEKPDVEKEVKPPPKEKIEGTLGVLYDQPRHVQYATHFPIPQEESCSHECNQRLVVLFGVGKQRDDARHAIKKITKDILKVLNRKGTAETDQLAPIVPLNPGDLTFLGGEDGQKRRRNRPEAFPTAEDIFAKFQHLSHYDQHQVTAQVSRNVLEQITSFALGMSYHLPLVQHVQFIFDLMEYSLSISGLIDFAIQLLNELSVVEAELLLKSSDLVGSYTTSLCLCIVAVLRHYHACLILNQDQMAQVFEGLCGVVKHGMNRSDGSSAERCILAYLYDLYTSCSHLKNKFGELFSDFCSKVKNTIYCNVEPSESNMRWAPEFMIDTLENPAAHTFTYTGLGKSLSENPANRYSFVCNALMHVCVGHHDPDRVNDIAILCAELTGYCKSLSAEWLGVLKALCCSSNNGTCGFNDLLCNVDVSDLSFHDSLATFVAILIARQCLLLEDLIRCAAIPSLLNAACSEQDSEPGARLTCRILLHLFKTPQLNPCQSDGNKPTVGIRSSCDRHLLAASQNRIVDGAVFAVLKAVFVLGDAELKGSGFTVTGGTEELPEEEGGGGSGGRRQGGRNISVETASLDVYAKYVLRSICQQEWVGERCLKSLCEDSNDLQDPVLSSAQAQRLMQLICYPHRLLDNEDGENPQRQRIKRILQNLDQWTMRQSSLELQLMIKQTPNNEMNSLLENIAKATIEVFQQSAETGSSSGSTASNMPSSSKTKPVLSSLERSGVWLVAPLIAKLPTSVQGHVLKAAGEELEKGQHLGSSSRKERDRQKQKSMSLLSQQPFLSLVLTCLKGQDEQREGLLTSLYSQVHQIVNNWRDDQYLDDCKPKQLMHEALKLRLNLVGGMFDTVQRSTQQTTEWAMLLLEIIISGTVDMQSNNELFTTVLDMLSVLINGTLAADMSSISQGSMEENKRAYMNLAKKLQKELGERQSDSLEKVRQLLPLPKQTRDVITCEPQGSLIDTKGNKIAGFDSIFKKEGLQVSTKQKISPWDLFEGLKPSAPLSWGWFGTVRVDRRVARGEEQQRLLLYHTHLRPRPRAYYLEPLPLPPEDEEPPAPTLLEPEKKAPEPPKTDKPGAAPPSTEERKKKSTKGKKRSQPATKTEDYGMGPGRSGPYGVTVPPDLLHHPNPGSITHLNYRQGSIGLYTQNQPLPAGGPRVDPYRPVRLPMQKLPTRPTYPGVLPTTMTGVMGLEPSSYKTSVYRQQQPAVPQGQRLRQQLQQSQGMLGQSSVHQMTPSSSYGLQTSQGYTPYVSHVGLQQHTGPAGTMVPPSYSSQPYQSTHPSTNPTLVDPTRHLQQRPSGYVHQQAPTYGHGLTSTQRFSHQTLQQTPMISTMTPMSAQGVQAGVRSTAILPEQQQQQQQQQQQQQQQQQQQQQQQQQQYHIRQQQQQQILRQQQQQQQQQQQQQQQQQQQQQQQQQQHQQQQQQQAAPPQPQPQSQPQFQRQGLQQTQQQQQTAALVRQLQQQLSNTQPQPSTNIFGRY

Row | Compound | IC50 (CDK19/Cyclin C) [nM] | GI50 (SW620; [1]) [nM] | GI50 (MV4:11; [2]) [nM] | GI50 (Molm13; [3]) [nM] | IC50 (CDK8/Cyclin C) [nM] | IC50 (Haspin kinase) [nM] | GI50 (MDA-MB-231; [4]) [nM] | EC50 (intracellular CDK8) [nM] | GI50 (SW620; SW-620, read-out: GI50 SW620) [nM] | GI50 (MV4:11; MV4-11, read-out: GI50 MV4:11) [nM] | GI50 (Molm13; MOLM-13, read-out: GI50 Molm13) [nM] | GI50 (MDA-MB-231; MDA-MB-231, read-out: GI50 MDA-MB-231) [nM]
1 | CC1(C)Oc2cnccc2-c2[nH]c(C(N)=O)c(-c3ccccc3)c21 [Example 31] | 107 | – | – | – | 29.7 | 73.2 | – | – | – | – | – | –
2 | CC(C)C1(C)Oc2cnccc2-c2[nH]c(C(N)=O)cc21 (stereo not drawn) [Example 54] | 97.1 | – | – | – | 31.1 | 52.9 | – | – | – | – | – | –
3 | Cn1c(C(N)=O)cc2c1-c1c(Cl)cncc1OC2(C)C [Example 41] | 158 | – | – | – | 55.5 | 1310 | – | – | – | – | – | –
4 | CC1(C)Oc2cnccc2-c2[nH]c(C(=O)O)c(Br)c21 [Example 29] | 205 | – | – | – | 52.5 | 89.3 | – | – | – | – | – | –
5 | Cn1c(C(N)=O)cc2c1-c1ccncc1OC2(C)C [Example 22] | 1.41 | – | – | – | 1.98 | 87.4 | – | – | 10000 to 100000 | < 1000 | 1000 to 10000 | 1000 to 10000
6 | COc1ccccc1-c1c(C(N)=O)[nH]c2c1C(C)(C)Oc1cnccc1-2 [Example 63] | 229 | – | – | – | 55.4 | 3960 | – | – | – | – | – | –

Continued, in another order:

Row | IC50 (CDK19/Cyclin C) [nM] | GI50 (SW620; [1]) [nM] | GI50 (MV4:11; [2]) [nM] | GI50 (Molm13; [3]) [nM] | IC50 (CDK8/Cyclin C) [nM] | IC50 (Haspin kinase) [nM] | GI50 (MDA-MB-231; [4]) [nM] | EC50 (intracellular CDK8) [nM] | Compound | GI50 (SW620; SW-620, read-out: GI50 SW620) [nM] | GI50 (MV4:11; MV4-11, read-out: GI50 MV4:11) [nM] | GI50 (Molm13; MOLM-13, read-out: GI50 Molm13) [nM] | GI50 (MDA-MB-231; MDA-MB-231, read-out: GI50 MDA-MB-231) [nM]
7 | 20.9 | 10000 to 100000 | 1000 to 10000 | 10000 to 100000 | 14.2 | 136 | 10000 to 100000 | – | COCCn1c(C(N)=O)cc2c1-c1ccncc1OC21CCOCC1 [Example 87] | – | – | – | –
8 | 0.827 | 1000 to 10000 | < 1000 | < 1000 | 0.262 | 24.2 | 1000 to 10000 | < 500 | NC(=O)c1cc2c(n1CCF)-c1ccncc1OC21CCC1 [Example 76] | – | – | – | –
9 | 1.41 | – | < 1000 | – | 2.1 | 31.8 | – | – | CC1(C)Oc2cncc(Cl)c2-c2[nH]c(C(N)=O)cc21 [Example 34] | – | – | – | –
10 | 16.6 | – | – | – | 9.32 | 26.6 | – | – | CC1(C)Oc2cnccc2-c2[nH]c(C(N)=O)c(Cl)c21 [Example 28] | – | – | – | –
11 | 1.41 | – | – | – | 0.466 | 27.6 | – | – | Cn1c(C(N)=O)cc2c1-c1ccncc1OC21CCC1 [Example 67] | – | – | – | –
12 | 6.1 | 1000 to 10000 | < 1000 | < 1000 | 3.83 | 138 | 1000 to 10000 | – | Cn1c(C(N)=O)cc2c1-c1ccncc1OC21CCOCC1 [Example 81] | – | – | – | –
